Measured values taken from paper PMC8092268, “Quorum Sensing in Streptococcus mutans Regulates Production of Tryglysin, a Novel RaS-RiPP Antimicrobial Compound” (mBio, 2021).
“Also recorded” adds a separate entry of the source. Marks after values point to notes of the source that are not given here. No end group written: not given here.

Legend:
S. agalactiae A909 = experiment: growth inhibition by tryglysins; assay type: cell-based, Streptococcus agalactiae; design: key: −: not inhibited; +: mildly inhibited; ++: inhibited; settings: 100 nM tryglysin, CDM, 37°C, 5% CO2, OD600 every hour; summary of growth curves
Description: (§1) For experiments to examine the effect of tryglysins, bacterial strains were grown from prestored glycerol stocks at −80°C and inoculated into THY broth. […] To monitor growth, OD600 was measured using a GENESYS 30 Vis spectrophotometer every hour.

L. lactis ATCC 11454 = experiment: growth inhibition by tryglysins; assay type: cell-based, Lactococcus lactis; design: key: −: not inhibited; +: mildly inhibited; ++: inhibited; settings: 100 nM tryglysin, CDM, 37°C, 5% CO2, OD600 every hour; summary of growth curves
Description: as §1

S. bovis JB1 = experiment: growth inhibition by tryglysins; assay type: cell-based, Streptococcus bovis; design: key: −: not inhibited; +: mildly inhibited; ++: inhibited; settings: 100 nM tryglysin, CDM, 37°C, 5% CO2, OD600 every hour; summary of growth curves
Description: as §1

S. ferus DSM 20646 = experiment: growth inhibition by tryglysins; assay type: cell-based, Streptococcus ferus; design: key to Level of inhibition: −: not inhibited; +: mildly inhibited; ++: inhibited; settings: CDM; for Level of inhibition: 100 nM tryglysin, 37°C, 5% CO2, OD600 every hour, summary of growth curves; for growth inhibition at 100 nM (titration): Fig. 6
Description: as §1

S. mutans UA159 [1] = experiment: growth inhibition by tryglysins; assay type: cell-based, Streptococcus mutans; design: key to Level of inhibition: −: not inhibited; +: mildly inhibited; ++: inhibited; settings: for Level of inhibition: 100 nM tryglysin, 37°C, 5% CO2, OD600 every hour, summary of growth curves; for growth inhibition at 100 nM (titration): 9-h growth assay, Fig. 6
Description: as §1

S. mitis CCUG 31611 = experiment: growth inhibition by tryglysins; assay type: cell-based, Streptococcus mitis; design: key: −: not inhibited; +: mildly inhibited; ++: inhibited; settings: 100 nM tryglysin, CDM, 37°C, 5% CO2, OD600 every hour; summary of growth curves
Description: as §1

S. pneumoniae D39 = experiment: growth inhibition by tryglysins; assay type: cell-based, Streptococcus pneumoniae; design: key to Level of inhibition: −: not inhibited; +: mildly inhibited; ++: inhibited; settings: for Level of inhibition: 100 nM tryglysin, CDM, 37°C, 5% CO2, OD600 every hour, summary of growth curves
Description: as §1

S. mutans UA159 [2] = experiment: cell chaining by microscopy; assay type: cell-based, Streptococcus mutans; settings: 100 nM
Description: For microscopic analysis of live cells exposed to tryglysins, S. mutans strains were inoculated and grown as described above in the “Luciferase assays with chromosomal reporters” section. […] For microscopic analysis of samples, 2 μl of live cells was taken at 2 h, 5 h, and 7 h after the addition of tryglysins and examined using an Olympus CKX53 inverted microscope with a 40× LCACHN-iPC infinity objective (LCACHN40XIPC; numerical aperture, 0.55) connected to a SC50 camera (Olympus). Images were processed using Olympus Stream Image Analysis software (Olympus).
For microscopic analysis of fixed cells exposed to tryglysin A, S. mutans strains were inoculated and grown as described above in the “Luciferase assays with chromosomal reporters” section. […] Supernatant was discarded, and cells were resuspended in 1 ml of fresh CDM. Resuspended cells were dropped into 10 ml of ice-cold 80% methanol and incubated for 1 h at room temperature. Afterwards, 800 μl of 4% paraformaldehyde was added to each methanol cell suspension. The mixture was incubated at room temperature for 5 min, and cells were spun down at 2,500 × g for 10 min. Supernatant was discarded, and cells were resuspended in 200 to 800 μl chilled GTE buffer (50 mM glucose, 20 mM Tris-HCl [pH 7.5], 1 mM EDTA). Cells were kept at 4°C overnight, and then 2 to 5 μl of cells in GTE buffer were placed on a microscope slide. Prepared slides were examined using an Olympus BX51 fluorescence microscope with a 100× UPLFLN objective (UPLFLN 100XO2; numerical aperture, 1.3) connected to an Olympus DP72 Single Chip color charge-coupled-device (CCD) camera. Images were processed using ImageJ 1.52i ([80]). […] Cells were classified as being in chains greater than three per chain or equal to or lesser than three per chain. The percentage of cells belonging to either of these categories was calculated as the number of cells in the category/total number of cells. […] For statistical analysis, data were analyzed via a one-way analysis of variance (ANOVA) with Dunnet’s multiple comparison posttest in Graph Pad Prism.

E. faecalis V583 = experiment: growth inhibition by tryglysins; assay type: cell-based, Enterococcus faecalis; design: key: −: not inhibited; +: mildly inhibited; ++: inhibited; settings: 100 nM tryglysin, CDM, 37°C, 5% CO2, OD600 every hour; summary of growth curves
Description: as §1

S. gordonii Challis Bt = experiment: growth inhibition by tryglysins; assay type: cell-based, Streptococcus gordonii; design: key: −: not inhibited; +: mildly inhibited; ++: inhibited; settings: 100 nM tryglysin, CDM, 37°C, 5% CO2, OD600 every hour; summary of growth curves
Description: as §1

S. pyogenes NZ131 = experiment: growth inhibition by tryglysins; assay type: cell-based, Streptococcus pyogenes; design: key: −: not inhibited; +: mildly inhibited; ++: inhibited; settings: 100 nM tryglysin, CDM, 37°C, 5% CO2, OD600 every hour; summary of growth curves
Description: as §1

[3] = system: Pshp-luxAB reporter (PdrA/SHP system); experiment: luciferase assay, chromosomal Pshp-luxAB reporter, wild type; settings: CDM; for induction of Pshp-luxAB by tryglysins: 100 nM tryglysin
[4] = system: PwgkA-luxAB reporter (PdrA/SHP system); experiment: luciferase assay, chromosomal PwgkA-luxAB reporter, wild type; settings: CDM, 100 nM tryglysin
S. oralis 108 = experiment: growth inhibition by tryglysins; assay type: cell-based, Streptococcus oralis; design: key: −: not inhibited; +: mildly inhibited; ++: inhibited; settings: 100 nM tryglysin, CDM, 37°C, 5% CO2, OD600 every hour; summary of growth curves
Description: as §1

S. mutans UA159 [5] = experiment: CFU/ml assay (bacteriostatic or bactericidal); assay type: cell-based, Streptococcus mutans; settings: 100 nM, CDM; for recovery of viability: 24 h; for mode of action on viability: overall effect
Description: To perform CFU/milliliter assays, S. mutans was grown overnight, washed, and resuspended in CDM as outlined above in the “Luciferase assays with chromosomal reporters” section, with the exception that replicate tubes for harvest at each time point for both no-tryglysin and tryglysin-treated conditions were inoculated from bacterial cultures resuspended overnight. […] At this time point (0 h) and at 1, 2, 4, 6, 8 and 24 h after tryglysin addition, a set of no-tryglysin and tryglysin-treated tubes were harvested. At each time point, 100 μl from each tube in a set was harvested and diluted 1:10 successively in fresh THY. Dilutions from 10^−3 to 10^−6 (depending on the time point) were plated as follows: for each dilution, 10 μl was plated in triplicate on THY agar plates and allowed to drip vertically down the plate. This allowed for the spread of S. mutans colonies for later CFU/ml counting. After each dilution plating, plates were placed at 37°C and incubated for 48 h. […] After 2 days of incubation, colonies were counted for each time point, replicate, and condition, and the number of CFU/milliliter was calculated. Drip plates were considered to have accurate counts if colonies were between 10 and 150 colonies per drip. […] Statistical analysis was performed using a one-way ANOVA with Sidak’s multiple comparison posttest on Graph Pad Prism.

S. mutans UA159 [6] = experiment: growth inhibition by UV-exposed tryglysin A; assay type: cell-based, Streptococcus mutans; settings: short-wavelength UV light 1 h, 2 h or 4 h; 100 or 500 nM tryglysin A; CDM
Description: To monitor growth, OD600 was measured using a GENESYS 30 Vis spectrophotometer every hour, and data were plotted using Graph Pad Prism 8.0.0.

[7] = 5 h, A: one-way ANOVA with Dunnet's posttest
[8] = 7 h, A: one-way ANOVA with Dunnet's posttest

Row | Substance | Level of inhibition (S. agalactiae A909) | Level of inhibition (L. lactis ATCC 11454) | Level of inhibition (S. bovis JB1) | Level of inhibition (S. ferus DSM 20646) | growth inhibition at 100 nM (titration) (S. ferus DSM 20646) | optical density of cultures parallel to CFU assay (S. mutans UA159 [1]) | Level of inhibition (S. mutans UA159 [1]; CDM) | growth inhibition at 100 nM (titration) (S. mutans UA159 [1]; CDM) | Level of inhibition (S. mitis CCUG 31611) | Level of inhibition (S. pneumoniae D39) | cell chaining (S. mutans UA159 [2]; 2 h) | cell chaining (S. mutans UA159 [2]; [7]) | cell chaining (S. mutans UA159 [2]; [8]) | Level of inhibition (E. faecalis V583) | Level of inhibition (S. gordonii Challis Bt) | Level of inhibition (S. pyogenes NZ131) | induction of Pshp-luxAB by tryglysins [3] | induction of PwgkA-luxAB by tryglysins [4] | Level of inhibition (S. oralis 108) | recovery of viability (S. mutans UA159 [5]) | also measured
1 | VNCWGKH (also: sidechain bridge or staple (positions not given here)) [tryglysin B, 7-mer macrocyclic peptide VNCWGKH carrying the tetrahydro[5,6]benzindole modification, predicted product of the S. mutans wgk cluster] | + | − | + | ++ | substantially inhibited | A proportionate inhibition and restoration of growth were observable by optical density measurements | ++ | substantially inhibited | ++ | ++ | small chains were observed | appeared to do the same | appeared to do the same | − | + | − | do not induce the system | do not induce the system | ++ | treated cells were able to overcome this by 24 h | concentration required for complete growth inhibition (S. mutans UA159 [1]; CDM, over the 9-h growth assay, Fig. 6A): 1 µM; mode of action on viability (S. mutans UA159 [5]): bacteriostatic activities rather than bactericidal
2 | VNSWGKH (also: sidechain bridge or staple (positions not given here)) [tryglysin A, macrocyclic 7-mer RiPP from S. ferus, VNSWGKH with tetrahydro[5,6]benzindole modification] | ++ | − | + | ++ | substantially inhibited | A proportionate inhibition and restoration of growth were observable by optical density measurements | ++ | substantially inhibited | ++ | ++^b | small chains were observed | significantly increased | significantly increased | − | + | − | do not induce the system | do not induce the system | ++ | treated cells were able to overcome this by 24 h | reproducibility of inhibition (S. pneumoniae D39; 100 nM, three experiments): b For S. pneumoniae D39, two experiments showed inhibition with 100 nM tryglysin A, one experiment did not.; inhibitory activity after UV exposure (S. mutans UA159 [6]): Proportionate decrease of inhibitory activity was observed; also recorded: inhibitory activity can be inactivated by exposure to UV light; mode of action on viability (S. mutans UA159 [5]): bacteriostatic activities rather than bactericidal
3 | GLDWWSL [XIP, reference compound] |  |  |  |  |  |  |  |  |  |  |  |  |  |  |  |  |  |  |  |  | induction of Pshp-luxAB reporter (cross talk) ([3]; 1 μM, Fig. S2C, performed twice): did not observe any induction
